The text below walks through data of patent US8063048B2, “Acetylenyl-pyrazolo-pyrimidine derivatives” (Hoffmann-La Roche Inc., priority 2005, dated 2011).

For orientation: melting point means the temperature of the solid-liquid transition.

`NS(=O)(=O)c1cccc(C#Cc2cnn3c(C4CC4)cc(-c4ccc(Cl)cc4)nc23)c1` [Example 72, 3-[5-(4-Chloro-phenyl)-7-cyclopropyl-pyrazolo[1,5-a]pyrimidin-3-ylethynyl]-benzenesulfonamide] yielded a melting point of 236 to 237 °C.

The compound `CC(C)(O)c1ccc(C#Cc2cnn3c(C4CC4)cc(-c4ccc(Cl)cc4)nc23)cc1` [Example 300, 2-{4-[5-(4-Chloro-phenyl)-7-cyclopropyl-pyrazolo[1,5-a]pyrimidin-3-ylethynyl]-phenyl}-propan-2-ol] registered a melting point of 148 to 150 °C.

Compound `O=S(=O)(c1ccc(C#Cc2cnn3c(C(F)F)cc(-c4ccc(C(F)(F)F)cc4)nc23)cc1)N1CCOCC1` [Example 137, 7-Difluoromethyl-3-[4-(morpholine-4-sulfonyl)-phenylethynyl]-5-(4-trifluoromethyl-phenyl)-pyrazolo[1,5-a]pyrimidine] displayed a melting point of 227 to 228 °C.

As for `CC(C)(CO)NS(=O)(=O)c1cnc(C#Cc2cnc3c(C(F)(F)F)cc(-c4ccc(C(F)(F)F)cc4)cn23)s1` [Example 196, 2-[8-Trifluoromethyl-6-(4-trifluoromethyl-phenyl)-imidazo[1,2-a]pyridin-3-ylethynyl]-thiazole-5-sulfonic acid (2-hydroxy-1,1-dimethyl-ethyl)-amide], the melting point was 202 to 203 °C.

The compound `COc1ccc(C#Cc2cnn3c(C4CC4)cc(-c4ccc(C(F)(F)F)cc4)nc23)cc1S(=O)(=O)NC(C)(C)CO` [Example 81, 5-[7-Cyclopropyl-5-(4-trifluoromethyl-phenyl)-pyrazolo[1,5-a]pyrimidin-3-ylethynyl]-N-(2-hydroxy-1,1-dimethyl-ethyl)-2-methoxy-benzenesulfonamide] had a melting point of 192 to 195 °C.

Compound `Nc1ccc(C#Cc2ncn3c(C(F)(F)F)cc(-c4ccc(C(F)(F)F)cc4)nc23)cn1` [Example 284, 5-[4-Trifluoromethyl-2-(4-trifluoromethyl-phenyl)-imidazo[1,5-a]pyrimidin-8-ylethynyl]-pyridin-2-ylamine] displayed a melting point of 225 °C.

As for `NS(=O)(=O)c1cncc(C#Cc2cnn3c(C4CC4)cc(-c4ccc(Cl)cc4)nc23)c1` [Example 66, 5-[5-(4-Chloro-phenyl)-7-cyclopropyl-pyrazolo[1,5-a]pyrimidin-3-ylethynyl]-pyridine-3-sulfonic acid amide], the melting point is 252 to 254 °C.

The compound `FC(F)(F)c1ccc(-c2cc(C(F)(F)F)n3ncc(C#Cc4cccnc4)c3n2)cc1` [Example 3, 3-Pyridin-3-ylethynyl-7-trifluoromethyl-5-(4-trifluoromethyl-phenyl)-pyrazolo[1,5-a]pyrimidine] returned a melting point of 187 to 188 °C.

On to `N#CCCNS(=O)(=O)c1cccc(C#Cc2cnn3c(C(F)(F)F)cc(-c4ccc(C(F)(F)F)cc4)nc23)c1` [Example 47, N-(2-Cyano-ethyl)-3-[7-trifluoromethyl-5-(4-trifluoromethyl-phenyl)-pyrazolo[1,5-a]pyrimidin-3-ylethynyl]-benzenesulfonamide], for which the melting point is 174 to 182 °C.

The compound `NS(=O)(=O)c1ccc(C#Cc2cnn3c(C(F)(F)F)cc(-c4ccc(C(F)(F)F)cc4)nc23)c(F)c1` [Example 45, 3-Fluoro-4-[7-trifluoromethyl-5-(4-trifluoromethyl-phenyl)-pyrazolo[1,5-a]pyrimidin-3-ylethynyl]-benzenesulfonamide] displayed a melting point of 230 to 232 °C.

`FC(F)(F)c1ccc(-c2cc(C(F)(F)F)n3cnc(C#Cc4cccnc4)c3n2)cc1` [Example 268, 8-Pyridin-3-ylethynyl-4-trifluoromethyl-2-(4-trifluoromethyl-phenyl)-imidazo[1,5-a]pyrimidine] came in with a melting point of 199 °C.

On to `NS(=O)(=O)c1ccc(C#Cc2cnn3c(C4CC4)cc(-c4ccc(Cl)cc4)nc23)cc1` [Example 63, 4-[5-(4-Chloro-phenyl)-7-cyclopropyl-pyrazolo[1,5-a]pyrimidin-3-ylethynyl]-benzenesulfonamide], for which the melting point was in the range of 225 to 228 °C.

`Nc1ccc(C#Cc2cnn3c(C(F)(F)F)cc(-c4cccc(C(F)(F)F)c4)nc23)cn1` [Example 259, 5-[7-Trifluoromethyl-5-(3-trifluoromethyl-phenyl)-pyrazolo[1,5-a]pyrimidin-3-ylethynyl]-pyridin-2-ylamine]: the melting point turned out to be 177 °C.

Compound `Cc1cc(-c2cc(C(F)(F)F)n3ncc(C#Cc4ccc(N)nc4)c3n2)ccc1C(F)(F)F` [Example 289, 5-[5-(3-Methyl-4-trifluoromethyl-phenyl)-7-trifluoromethyl-pyrazolo[1,5-a]pyrimidin-3-ylethynyl]-pyridin-2-ylamine] gave a melting point of 201 °C.

`O=S(=O)(NCCO)c1cc(C#Cc2cnn3c(C(F)F)cc(-c4ccc(C(F)(F)F)cc4)nc23)c(F)cc1F` [Example 135, 5-[7-Difluoromethyl-5-(4-trifluoromethyl-phenyl)-pyrazolo[1,5-a]pyrimidin-3-ylethynyl]-2,4-difluoro-N-(2-hydroxy-ethyl)-benzenesulfonamide] showed a melting point of 149 to 150 °C.

The compound `O=S(=O)(c1cncc(C#Cc2cnn3c(C(F)(F)F)cc(-c4ccc(C(F)(F)F)cc4)nc23)c1)N(CCO)CCO` [Example 13, 5-[7-Trifluoromethyl-5-(4-trifluoromethyl-phenyl)-pyrazolo[1,5-a]pyrimidin-3-ylethynyl]-pyridine-3-sulfonic acid bis-(2-hydroxy-ethyl)-amide] yielded a melting point of 173 to 178 °C.

Turning to `CN(C)CCNS(=O)(=O)c1ccc(C#Cc2cnn3c(C(F)F)cc(-c4ccc(C(F)(F)F)cc4)nc23)s1` [Example 253, 5-[7-Difluoromethyl-5-(4-trifluoromethyl-phenyl)-pyrazolo[1,5-a]pyrimidin-3-ylethynyl]-thiophene-2-sulfonic acid (2-dimethylamino-ethyl)-amide], the melting point came to 132 °C.

Compound `CC(C)(O)c1cc(-c2ccc(Cl)cc2)nc2c(C#Cc3ccc(S(N)(=O)=O)s3)cnn12` [Example 154, 5-[5-(4-Chloro-phenyl)-7-(1-hydroxy-1-methyl-ethyl)-pyrazolo[1,5-a]pyrimidin-3-ylethynyl]-thiophene-2-sulfonic acid amide] yielded a melting point of 206 to 208 °C.

Compound `Nc1ncc(C#Cc2cnn3c(C(F)(F)F)cc(-c4ccc(Cl)cc4)nc23)cc1C(F)(F)F` [Example 223, 5-[5-(4-Chloro-phenyl)-7-trifluoromethyl-pyrazolo[1,5-a]pyrimidin-3-ylethynyl]-3-trifluoromethyl-pyridin-2-ylamine] registered a melting point of 209 °C.

`NS(=O)(=O)c1ccc(C#Cc2cnn3c(C(F)(F)F)cc(-c4ccc(Cl)cc4)nc23)s1` [Example 97, 5-[5-(4-Chloro-phenyl)-7-trifluoromethyl-pyrazolo[1,5-a]pyrimidin-3-ylethynyl]-thiophene-2-sulfonic acid amide] displayed a melting point of 239 to 240 °C.

Turning to `CCOc1cccc(-c2cc(C(F)F)n3ncc(C#Cc4ccc(N)nc4)c3n2)c1` [Example 208, 5-[7-Difluoromethyl-5-(3-ethoxy-phenyl)-pyrazolo[1,5-a]pyrimidin-3-ylethynyl]-pyridin-2-ylamine], the melting point is 162 °C.
